How the values were obtained:
[1] = test system: zymosan-stimulated footpad edema; experiment: Mouse zymosan-stimulated footpad edema reaction; assay type: in vivo; conditions: ICR female mice, oral 0.1 to 500 mg/kg, compared with positive control group
Method: 3. Suppressing Effect on Mouse Zymosan-stimulated Footpad Edema Reaction A suppressing effect on footpad edema caused by zymosan as an inflammatory stimulant was studied by the following method. Groups of ICR female mice (6- to 7-week old) each consisting of eight mice were used for the test. A test compound was suspended or dissolved in purified water containing 0.5% methylcellulose and orally administered to the test animals at 0.1 to 500 mg/0.2 ml/kg. To the control group, purified water containing 0.5% methylcellulose was administered in a similar manner, which was not added with a test compound. One hour after the administration of the test compound, 0.02 ml of a suspension of zymosan suspended in physiological saline (Otsuka Pharmaceutical) at 1 mg/ml was subcutaneously administered to right hind leg footpad of each mouse. One and two hours after the administration of the zymosan suspension, volume of the right hind leg footpad was measured by using an apparatus for measuring a volume of mouse hind leg footpad edema (Unicom). A difference of the volume of footpad measured above and the footpad volume before the administration of the test compound measured beforehand was regarded as a volume of the edema. For the volume of the edema at 1 hour or 2 hours after the zymosan administration, a graph was prepared by indicating time in abscissa and the edema volume in ordinate, and an edema volume AUC (area under the curve) was obtained up to 2 hours by calculation using the following equation. Edema volume AUC (1·hour)=1/2×1×A+1×(A+B)/2 • A: Edema volume 1 hour after zymosan administration • B: Edema volume 2 hour after zymosan administration A suppression ratio on edema of test compound was obtained by calculation using the following equation. Edema suppression ratio (%)=[1−B/A]×100 • A: Edema volume AUC of positive control • B: Edema volume AUC of test compound administered group (2) Measurement Results

[2] = test system: PGE2 production from IL-1β-stimulated MG-63 cells; experiment: Suppressing action on PGE2 production from IL-1β-stimulated MG-63 cells; assay type: cell-based; conditions: Homo sapiens, IL-1β 1 ng/ml, 18 hours, read-out: PGE2 production suppression ratio
Text: 1. Suppressing Action on PGE2 Production from IL-1β-Stimulated MG-63 Cells (1) Method for Measurement
An action of suppressing PGE2 production caused by interleukin (IL) 1β as an inflammatory stimulant was studied by the following method. Cells of MG-63, which is a human osteosarcoma cell line (purchased from Dainippon Pharmaceutical), were suspended in EMEM medium (GIBCO) containing 10% fetal bovine serum (BioFluid), and then inoculated to each well of 96-well culture plate at a density of 2×10^4 cells/well and cultured overnight. The medium was changed to EMEM medium containing 0.5% fetal bovine serum, and then a test compound was added with each well. Human interleukin-1β (ENDOGEN) was further added as an inflammatory stimulant at a final concentration of 1 ng/ml. The cells were further cultured for 18 hours. The culture supernatant was collected, and the PGE2 concentration in the culture supernatant was measured by using EIA kit (CAYMAN). By using a well which was not added with the stimulant as a negative control and a well which was added only with the stimulant as a positive control, suppression ratios on PGE2 production were calculated from produced amounts of PGE2 in the well added with the test compound using the following equation. PGE2 production suppression ratio=[1−(C−B)/(A−B)]×100 • A: PGE2 production amount of positive control • B: PGE2 production amount of negative control • C: PGE2 production amount in well added with test compound

“3-(3-{6-[(2-aminoacetyl)amino]Naphthalen-2-yl}-4-cyclopentyl-methyloxyphenyl)propionic acid [Compound 078]” was tested, and the “suppression of footpad edema caused by zymosan” value (“suppression” below) [1] was “suppressed footpad edema”.

For “3-[4-isopropyloxy-3-(1H-indol-5-yl)phenyl]propionate [Compound 173]”, the “suppression” value [1] was “suppressed footpad edema”.

With `O=C(O)CCc1ccc(OCCc2ccccc2F)c(-c2ccc3cc(O)ccc3c2)c1` [Compound 006, 3-{4-[2-(2-fluorophenyl)ethyloxy]-3-(6-hydroxynaphthalen-2-yl)phenyl}propionic acid] the inhibition at 0.4 µM [2] was at least 50% and the “suppression” value [1] was “suppressed footpad edema”.

With `O=C(O)CCc1ccc(OCc2ccccc2F)c(-c2ccc3ccccc3c2)c1` [Compound 031, 3-[4-(2-fluorophenylmethyloxy)-3-(naphthalen-2-yl)phenyl]propionic acid] the inhibition at 0.4 µM [2] was at least 50% and the “suppression” value [1] was “suppressed footpad edema”.

In the case of `O=C(O)CCc1ccc(OCC2CCCC2)c(-c2ccc3cc(NC(=O)CO)ccc3c2)c1` [Compound 079, 3-(4-cyclopentylmethyloxy-3-{6-[2-(hydroxyacetyl)amino]naphthalen-2-yl}phenyl)propionic acid], the “suppression” value [1] is reported as “suppressed footpad edema”.

With `O=C(O)CCc1ccc(OCCc2ccccc2F)c(-c2ccc3[nH]ccc3c2)c1` [Compound 106, 3-{4-[2-(2-fluorophenyl)ethyloxy]-3-(1H-indol-5-yl)phenyl}propionic acid] the inhibition at 0.4 µM [2] was at least 50% and the “suppression” value [1] was “suppressed footpad edema”.

With `O=C(O)CCc1ccc(OCC2CCCC2)c(-c2cccc3[nH]ccc23)c1` [Compound 114, 3-[4-cyclopentylmethyloxy-3-(1H-indol-4-yl)phenyl]propionic acid] the inhibition at 0.4 µM [2] was at least 50% and the “suppression” value [1] was “suppressed footpad edema”.

In the case of `O=C(O)CCc1ccc(OCc2c(Cl)cccc2Cl)c(-c2ccc3[nH]ccc3c2)c1` [Compound 164, 3-[4-(2,6-dichlorophenylmethyloxy)-3-(1H-indol-5-yl)phenyl]propionic acid], the inhibition at 0.4 µM [2] is reported as at least 50% and the “suppression” value [1] is reported as “suppressed footpad edema”.

With `COc1ccc(CCOc2ccc(CCC(=O)O)cc2-c2ccc3[nH]ccc3c2)cc1` [Compound 207, 3-{3-(1H-indol-5-yl)-4-[2-(4-methoxyphenyl)ethyloxy]phenyl}propionic acid] the inhibition at 0.4 µM [2] was at least 50% and the “suppression” value [1] was “suppressed footpad edema”.

In the case of `CN(C)c1ccc(CCOc2ccc(CCC(=O)O)cc2-c2ccc3[nH]ccc3c2)cc1` [Compound 215, 3-(4-{2-[4-(N,N-dimethylamino)phenyl]Ethyloxy}-3-[1H-indol-5-yl]phenyl)propionic acid], the inhibition at 0.4 µM [2] is reported as at least 50% and the “suppression” value [1] is reported as “suppressed footpad edema”.

With `O=C(O)CCc1ccc(OCCOc2ccccc2)c(-c2ccc3[nH]ccc3c2)c1` [Compound 222, 3-{3-(1H-indol-5-yl)-4-[2-(phenyloxy)ethyloxy]phenyl}propionic acid] the inhibition at 0.4 µM [2] was at least 50% and the “suppression” value [1] was “suppressed footpad edema”.

With `O=C(O)CCc1ccc(OCCOc2ccccc2Cl)c(-c2ccc3[nH]ccc3c2)c1` [Compound 224, 3-{4-[2-(2-chlorophenyloxy)ethyloxy]-3-(1H-indol-5-yl)phenyl}propionic acid] the inhibition at 0.4 µM [2] was at least 50% and the “suppression” value [1] was “suppressed footpad edema”.

For `CCCCOc1ccc(CCC(=O)O)cc1-c1ccc2nc(N)sc2c1` [Compound 291, 3-[3-(2-aminobenzothiazol-6-yl)-4-butyloxyphenyl]propionic acid], the inhibition at 0.4 µM [2] was at least 50% and the “suppression” value [1] was “suppressed footpad edema”.

With `CC(C)(C)c1ccc(COc2ccc(CCC(=O)O)cc2-c2ccc3[nH]ccc3c2)cc1` [Compound 329] the “suppression” value [1] was “suppressed footpad edema”.

`Cc1cc(CCC(=O)O)cc(-c2ccc3ccccc3c2)c1OC1CCCC1` [Compound 570, 3-[4-cyclopentyloxy-3-methyl-5-(naphthalen-2-yl)phenyl]propionic acid] gave an inhibition at 0.4 µM [2] of at least 50%.

`Cc1cc(CCC(=O)O)cc(-c2ccc3[nH]ccc3c2)c1OC1CCCC1` [Compound 571, 3-[4-cyclopentyloxy-3-(1H-indol-5-yl)-5-methylphenyl]propionic acid] gave an inhibition at 0.4 µM [2] of at least 50%.

For `Cc1n[nH]c2ccc(-c3cc(CCC(=O)O)ccc3OC3CCCC3)cc12` [Compound 574, 3-[4-cyclopentyloxy-3-(3-methyl-1H-indazol-5-yl)phenyl]propionic acid], the inhibition at 0.4 µM [2] was at least 50%.

With `Cc1nn(C)c2ccc(-c3cc(CCC(=O)O)ccc3OC3CCCC3)cc12` [Compound 576, 3-[4-cyclopentyloxy-3-(1,3-dimethyl-1H-indazol-5-yl)phenyl]propionic acid] the inhibition at 0.4 µM [2] was at least 50%.

For `COc1cc(CCC(=O)O)cc(-c2ccc3[nH]ccc3c2)c1OC1CCCC1` [Compound 578, 3-[4-cyclopentyloxy-3-(1H-indol-5-yl)-5-methoxyphenyl]propionic acid], the inhibition at 0.4 µM [2] was at least 50%.

In the case of `COc1cc(CCC(=O)O)cc(-c2ccc3c(ccn3C)c2)c1OC1CCCC1` [Compound 580, 3-[4-cyclopentyloxy-3-methoxy-5-(1-methyl-1H-indol-5-yl)phenyl]propionic acid], the inhibition at 0.4 µM [2] is reported as at least 50%.

In the case of `CCn1ccc2cc(-c3cc(CCC(=O)O)cc(OC)c3OC3CCCC3)ccc21` [Compound 582, 3-[4-cyclopentyloxy-3-(1-ethyl-1H-indol-5-yl)-5-methoxyphenyl]propionic acid], the inhibition at 0.4 µM [2] is reported as at least 50%.

For `Cc1cc2cc(-c3cc(CCC(=O)O)ccc3OCC3CCCC3)ccc2[nH]1` [Compound 584, 3-[4-cyclopentylmethyloxy-3-(2-methyl-1H-indol-5-yl)phenyl]propionic acid], the inhibition at 0.4 µM [2] was at least 50%.

`CNc1cc(CCC(=O)O)cc(-c2ccc3c(cnn3C)c2)c1OC1Cc2ccccc2C1` [Compound 587, 3-[4-(indan-2-yloxy)-3-(N-methylamino)-5-(1-methyl-1H-indazol-5-yl)phenyl]propionic acid] showed an inhibition at 0.4 µM [2] of at least 50%.

`CCCOc1ccc(CCC(=O)O)cc1-c1ccc2[nH]ccc2c1` [Compound 588, 3-[4-n-propyloxy-3-(1H-indol-5-yl)phenyl]propionic acid] gave an inhibition at 0.4 µM [2] of at least 50%.

— US6867320B2, “Substituted phenylalkanoic acid derivatives and use thereof” (Asahi Kasei Pharma Corporation, priority 2002, dated 2005)
